Results on 1 compound are retold here after paper PMC6153520, “Proteasome inhibition and mechanism of resistance to a synthetic, library-based hexapeptide” (Investigational New Drugs, 2018).

One data set concerns THP1/BTZ200. As to the kind of experiment: Growth inhibition assay (72 h, trypan blue). Type of data set: cell-based, human. The following applies: relative to IC50 in THP1/WT. On the procedure:
(§1) Human monocytic/macrophage THP1 cells (ATTC, Manassas, USA) were cultured in RPMI-1640 medium supplemented with 5% fetal calf serum, 20 mM HEPES, 2 mM glutamine and 100 μg/ml penicillin/ streptomycin at 5% CO2 and 37 °C. Cell cultures were seeded at a density of 3 × 10^5 cells/ml and refreshed twice weekly. […] Some specific experiments also included THP1/BTZ100 cells that were cultured in the absence of BTZ for 6 months (further designated as THP1/BTZ (−100) cells). Mouse thymoma EL4 and human multiple myeloma H929 cells were cultured in RPMI-1640 medium supplemented with 8% fetal calf serum and 100 μg/ml penicillin/streptomycin at 5% CO2 and 37 °C.
(§2) Evaluation of drug sensitivity was carried out as described before. Cells were seeded at an initial density of 1.25 × 10^5 cells/ml in individual wells of a 24-well plate containing up to 50 μl of drug solutions. Inhibition of cell growth was determined after 72 h of incubation at 37 °C by determining the number of viable cells […] using trypan blue exclusion. The drug concentration required to inhibit cell growth by 50% compared to untreated controls was defined as the IC50.

For another data set, the system named is THP1/BTZ50. As to the kind of experiment: Growth inhibition assay (72 h, trypan blue). The data set is classed as cell-based, human. The following applies: relative to IC50 in THP1/WT. On the procedure: as §1, §2
Another data set relates to THP1/BTZ (−100) cells. The data set is classed as cell-based, human. The note with it: 72 h. On the procedure: as §1, §2
A further data set concerns THP1/BTZ100. The data set is classed as cell-based, human. The note with it: 72 h. On the procedure: as §1, §2
The test system of the next data set is THP1/WT. The data set is classed as cell-based, human. On the procedure:
as §1, §2

The test system of data set [1] is bortezomib-resistant THP1 cell lines. As to the kind of experiment: Growth inhibition assay, cross-resistance. The data set is classed as cell-based, human. The note with it: relative to THP1/WT; 72 h growth inhibition. On the procedure:
as §1, §2

In data set [2] the target is T1, chymotrypsin-like proteasome activity (Homo sapiens, UniProt P28074).
T1 construct: chymotrypsin-like proteasome activity in intact THP1 cells after 1 h exposure; endogenous in cells; host or cells: THP1 (wild type)
In words: Proteasome-Glo cell-based assay in intact THP1 cells.

In data set [3] the target is T2, proteasome purified from bovine liver (Bos taurus, UniProt Q32KL2).
T2 construct: Proteasome was purified from bovine liver as described previously; from tissue; host or cells: bovine liver
In words: 4A6 cleavage assay (MALDI-TOF). The following applies: 1 μg proteasome, 1 μg 4A6, pH 8.5, 45 °C, 16 h. The data set is classed as biochemical. On the procedure:
Proteasome was purified from bovine liver as described previously. For digestion assays, 1 μg proteasome was incubated with 1 μg 4A6 in 50 μl of 50 mM Tris-HCl buffer pH 8.5 at 45 °C for 16 h. Subsequently, the reaction mixture was lyophilized and peptides purified using reversed-phase ZipTip®C18 tips (Millipore). The purified peptide mixture was mixed in a 1:1 ratio with 10 mg/ml 2,5-dihydroxybenzoic acid (DHB, Bruker Daltonik) matrix solution in 0.1% TFA and spotted onto a MALDI (matrix assisted laser desorption/ ionization) target plate. MALDI-TOF analysis was performed on an Autoflex, linear MALDI-TOF-MS (Bruker Daltonik GmbH, Bremen, Germany). Spectra were analyzed with flexAnalysis software (Bruker Daltonik).

The test system of a further data set is THP1/BTZ200 cells. As to the kind of experiment: Apoptosis assay (Annexin-V/7-AAD flow cytometry). The following applies: 24 h, 4A6 over 0–25 μM. The data set is classed as cell-based, human. On the procedure:
(§3) Induction of apoptosis was analyzed by flow cytometry using APOPTEST™-FITC A700 (VPS Diagnostics, Hoeven, the Netherlands) according to the instructions of the manufacturer. In short, induction of apoptosis was determined after 24 h’ drug exposure. One million cells were harvested and washed 3 times with ice-cold PBS. The cell pellet was incubated for 30 min with 7-Amino-actinomycin D (7-AAD) on ice followed by incubation with Annexin-V according to the instructions of the manufacturer. Annexin-V (early apoptosis) and 7-AAD (late apoptosis) staining was measured by flow cytometry (Beckton & Dickinson, FACScalibur) and analysed using FCSexpress V3 software (Denovo software, Thornhill, Canada).
In general terms: In flow cytometry, cells or beads pass a laser one at a time.

For a further data set, the system named is THP1/WT cells. In words: Apoptosis assay (Annexin-V/7-AAD flow cytometry). The data set is classed as cell-based, human. The note with it: 24 h exposure. On the procedure: as §3
The next data set has as its system THP1 cells. In words: Growth inhibition with or without Ruthenium Red. The data set is classed as cell-based, human. The following applies: 72 h, with or without 25 μM Ruthenium Red. On the procedure:
as §2

Data set [4] relates to Multidrug Resistance-associated Protein 1 (MRP1/ABCC1). Further details: method as in PMID 11289130. The note with it: ref [32]; cited from earlier work.

Where a SMILES comes first, the peptide text is derived from it. [ ]: non-standard residue; d: D form. The star is where a group is joined. His(τ-Bzl) = N[C@@H](Cc1cn(Cc2ccccc2)cn1)C(=O)O; Nle = CCCC[C@H](N)C(=O)O; NHBn = c1ccc(CN*)cc1; Bn = c1ccc(C*)cc1; OtBu = CC(C)(C)O*; tBu = CC(C)(C)*

Take `CCCC[C@H](NC(=O)[C@@H](NC(=O)[C@H](Cc1cn(Cc2ccccc2)cn1)NC(=O)[C@@H](NC(C)=O)[C@@H](C)OC(C)(C)C)[C@@H](C)OCc1ccccc1)C(=O)N[C@@H](CCC(=O)OC(C)(C)C)C(=O)NCC(=O)NCc1ccccc1` [4A6, Ac-Thr(tBu)-His(Bzl)-Thr(Bzl)-Nle-Glu(OtBu)-Gly-Bza] (Ac-T(tBu)[His(τ-Bzl)]T(Bn)[Nle]E(OtBu)G-NHBn): in the data set on THP1/BTZ200, the “[Resistance Factor] THP1/BTZ200” value is 287. Also, in the data set on THP1/BTZ50, the “[Resistance Factor] THP1/BTZ50” value came to 44. The half-maximal inhibitory concentration (IC50) (in general, the concentration needed to halve the response being measured) with THP1/BTZ (−100) cells is 10 µM; in the data set with THP1/BTZ100, greater than 25 µM; in the data set on THP1/WT (72 h) it was 0.26 ± 0.06 µM. Besides, in the data set with THP1/BTZ100 (relative to IC50 in THP1/WT), the “[Resistance Factor] THP1/BTZ100” value was determined as 117. The “[Resistance Factor] THP1/WT” value in the data set on THP1/WT (reference value in square brackets) is recorded as 1. In data set [1], the “cross-resistance of bortezomib-resistant cell lines” value was “up to 287 fold”. Further, the “potency fold lower than BTZ, chymotrypsin-like proteasome activity” value in data set [2] stood at 28 fold. The “proteolytic cleavage by purified proteasomes” value in data set [3] was “predominantly cleaved at the P4-P5 position”. The figures for the induction of apoptosis entry in the data set with THP1/BTZ200 cells and in the data set on THP1/WT cells were “none” and “efficient induction of apoptosis”, respectively. In addition, in the data set with THP1 cells, the “effect of Ruthenium Red on growth inhibitory activity (protection)” value is on record as “no effect”. In data set [4], the “ability to reverse efflux pump MDR (ABCC1)” value is listed as “lacked the ability to reverse efflux pump MDR”. Moreover, the “substrate of MDR efflux transporter ABCC1” value in data set [4] is “substrate”.
